# Results from ChEMBL document CHEMBL1921731, “Novel antileukemic agents derived from tamibarotene and nitric oxide donors” (Bioorg Med Chem Lett, 2011).
# Experiments:
# K562 [1] = test: Antiproliferative activity against human K562 cells after 48 hrs by MTT assay; type: functional, cell-based; conditions: K562, 48 h
# [2] = Induction of NO release from L-cysteine in phosphate buffer at pH 7.4 at 0.4 mM after 3 hrs by Griess assay; type: physicochemical; conditions: pH 7.4, 3 h, 400 µM
# NB-4 [3] = test: Antiproliferative activity against human NB4 cells after 48 hrs by MTT assay; type: functional, cell-based; conditions: NB-4, 48 h
# HL-60 [4] = test: Antiproliferative activity against human HL60 cells after 48 hrs by MTT assay; type: functional, cell-based; conditions: HL-60, 48 h
# HL-60 [5] = test: Ratio of tamibarotene IC50 to compound IC50 for human HL60 cells; type: functional
# K562 [6] = test: Ratio of tamibarotene IC50 to compound IC50 for human K562 cells; type: functional
# NB-4 [7] = test: Ratio of tamibarotene IC50 to compound IC50 for human NB4 cells; type: functional
SMILES,IC50 (K562 [1]) [µM],Activity [2],IC50 (NB-4 [3]) [µM],IC50 (HL-60 [4]) [µM],Ratio IC50 (HL-60 [5]),Ratio IC50 (K562 [6]),Ratio IC50 (NB-4 [7])
CC1(C)CCC(C)(C)c2cc(NC(=O)c3ccc(C(=O)OCCOC(=O)c4ccc(OCc5c(-c6ccccc6)no[n+]5[O-])cc4)cc3)ccc21,> 1000,Active,119,395,–,–,–
CC1(C)CCC(C)(C)c2cc(NC(=O)c3ccc(C(=O)OCCCOC(=O)c4ccc(OCc5c(-c6ccccc6)no[n+]5[O-])cc4)cc3)ccc21,> 1000,Active,140,185,–,–,–
CC1(C)CCC(C)(C)c2cc(NC(=O)c3ccc(C(=O)OCCCCOC(=O)c4ccc(OCc5c(-c6ccccc6)no[n+]5[O-])cc4)cc3)ccc21,> 1000,Active,952,651,–,–,–
CC1(C)CCC(C)(C)c2cc(NC(=O)c3ccc(C(=O)OCCCCCOC(=O)c4ccc(OCc5c(-c6ccccc6)no[n+]5[O-])cc4)cc3)ccc21,> 1000,Active,240,282,–,–,–
CC1(C)CCC(C)(C)c2cc(NC(=O)c3ccc(C(=O)OCCCCCCOC(=O)c4ccc(OCc5c(-c6ccccc6)no[n+]5[O-])cc4)cc3)ccc21,> 1000,Active,> 1000,486,–,–,–
CC1(C)CCC(C)(C)c2cc(NC(=O)c3ccc(C(=O)NCCOC(=O)c4ccc(OCc5c(-c6ccccc6)no[n+]5[O-])cc4)cc3)ccc21,> 1000,Active,10.4,12.3,–,–,–
CC1(C)CCC(C)(C)c2cc(NC(=O)c3ccc(C(=O)NCCNC(=O)c4ccc(OCc5c(-c6ccccc6)no[n+]5[O-])cc4)cc3)ccc21,13.3,Active,1.93,1.14,–,–,–
CC1(C)CCC(C)(C)c2cc(NC(=O)c3ccc(C(=O)NCC(=O)OCc4c(-c5ccccc5)no[n+]4[O-])cc3)ccc21,7.12,Active,0.19,0.16,56,6,25
C[C@H](NC(=O)c1ccc(C(=O)Nc2ccc3c(c2)C(C)(C)CCC3(C)C)cc1)C(=O)OCc1c(-c2ccccc2)no[n+]1[O-],60.4,Active,5.1,6.97,–,–,–
CC(C)[C@H](NC(=O)c1ccc(C(=O)Nc2ccc3c(c2)C(C)(C)CCC3(C)C)cc1)C(=O)OCc1c(-c2ccccc2)no[n+]1[O-],192,Active,4.39,5.85,–,–,–
CC(C)C[C@H](NC(=O)c1ccc(C(=O)Nc2ccc3c(c2)C(C)(C)CCC3(C)C)cc1)C(=O)OCc1c(-c2ccccc2)no[n+]1[O-],64,Active,0.97,0.74,–,–,–
CC1(C)CCC(C)(C)c2cc(NC(=O)c3ccc(C(=O)N[C@@H](Cc4ccccc4)C(=O)OCc4c(-c5ccccc5)no[n+]4[O-])cc3)ccc21,22.6,Active,0.75,0.5,–,–,–
CC1(C)CCC(C)(C)c2cc(NC(=O)c3ccc(C(=O)O)cc3)ccc21 [TAMIBAROTENE],42.4,–,4.81,8.94,–,–,–
